Measurements reported in the SangsterLogP compilation.

How the values were obtained:
[1] = method code SF-AS, from DOI: 10.1016/0009-2797(77)90097-7, PMID: 407012; conditions: pH 7.0
[2] = method code SF-TN, from DOI: 10.2116/analsci.13.897; conditions: pH 2.0
[3] = method code SF-AS, from DOI: 10.1016/0378-5173(93)90388-v
[4] = method code SF-AS, from DOI: 10.1248/cpb.17.2558
[5] = method code SF, from Dai, J-Y.; Han, S.; Wang, L. (2000). Prediction of partition properties of substituted benzaldehydes using different structural parameters. Zhongguo Huanjing Kexue (China Environmental Science), …
[6] = pH 7.3
[7] = method code SF-AS, from DOI: 10.1016/0731-7085(96)01773-6, PMID: 8877846
[8] = method code SF-AS, from DOI: 10.1248/cpb.35.377
[9] = method code SF-AS, from DOI: 10.1111/j.1440-1681.1976.tb00621.x, PMID: 10116
[10] = method code SF-GLC, from DOI: 10.1002/etc.5620080910
[11] = not given; remark: listed apart in the source
[12] = not given; remark: listed apart in the source
[13] = method code SF-HPLC, from DOI: 10.1016/0378-5173(84)90193-5; conditions: pH 4.0
[14] = method code SF-HPLC, from DOI: 10.1016/j.microc.2003.08.005
[15] = method code SF, from DOI: 10.2307/3575246, PMID: 7367588
[16] = not given; remark: listed apart in the source
[17] = not given; remark: listed apart in the source
[18] = method code SF-GLC, from DOI: 10.1002/jps.2600600712, PMID: 4398902
[19] = method code SF-HPLC, from DOI: 10.1002/etc.5620110812
[20] = method code SF-AS, from DOI: 10.1016/j.bmc.2008.07.057, PMID: 18706818; conditions: pH 7.4
[21] = method code SF, from DOI: 10.1016/j.tca.2004.05.019
[22] = method code SF, from Brown, J.; Yu, N.; Cory, M.; Bicknell, R.; Taylor, D. (1978). In vivo evaluation of the radiosensitizing and cytotoxic properties of newly synthesized electron-affinic drugs. 3, 206-211.
[23] = not given; remark: listed apart in the source
[24] = not given; remark: listed apart in the source
[25] = method code SF-AS, from DOI: 10.1016/0378-5173(80)90117-9
[26] = method code SF-GLC, from DOI: 10.1016/s0003-2670(00)84505-5
[27] = method code SF, from Huang, Q.; Wang, L.; Han, S.; Wang, G.; Gao, H. (1993). Quantitative relation between molecular structures and the hydrophobic parameters of halogenated arenes. Chemical Journal of Chinese …
[28] = not given; remark: listed apart in the source
[29] = method code SF, from DOI: 10.1016/0165-1218(78)90089-7, PMID: 362190
[30] = not given; remark: listed apart in the source
[31] = not given; remark: listed apart in the source
[32] = method code SF-AS, from DOI: 10.1248/cpb.26.2824
[33] = method code SF-GLC, from DOI: 10.1021/je00020a050
[34] = from KURIHARA, Norio.; Fujita, Toshio. (1983). Composition of Partition Coefficients of Polychlorinated Hydrocarbons (Commemoration Issue Dedicated to Professor Yuzo Inouye on the Occasion of his …
[35] = method code SF-AS, from DOI: 10.1016/s0021-9673(01)89384-5
[36] = method code SF, from DOI: 10.1016/s0928-0987(00)00099-3, PMID: 10915965; conditions: pH 5.0
[37] = not given; remark: listed apart in the source
[38] = not given; remark: listed apart in the source
[39] = method code SF-AS, from DOI: 10.1021/jm00299a013, PMID: 5458368
[40] = not given; remark: listed apart in the source
[41] = not given; remark: listed apart in the source

With `CN(CO)c1nc(N(C)CO)nc(N(C)CO)n1` the logD [1] was 0.4.

Work on `CCCC=CC(=O)O` yielded a logD [2] of 1.69.

Compound `CC1CCC(=O)N1C` (centres undefined) has a logP [3] of -0.07.

Compound `CNc1ccc(S(N)(=O)=O)cc1` has a logD ([4]; pH 5.5) of 0.08.

For `O=Cc1ccc(Cl)c(Cl)c1`, the logP [5] was 2.53.

Work on `O=c1cc(CO)occ1O` yielded a logD [6] of -0.64.

With `O=C1O[C@H]([C@@H](O)CO)C(O)=C1O` the logP [7] was -1.84.

Compound `Oc1ccc2ccccc2c1` has a logP [8] of 2.75.

With `CCC(Cl)(CC)C(=O)NC(N)=O` the logP [9] was 1.4.

`OCc1cc(Cl)cc(Cl)c1` gave a logP [8] of 2.9.

`CCC(C)CC` showed a logP of 2.8.

In the case of `O=[N+]([O-])c1cc(Cl)c(Cl)c(Cl)c1Cl`, the logP [10] is reported as 3.93.

`CSc1nc(N=[N+]=[N-])nc(NC(C)C)n1` gave a logP [11] of 3.27.

`c1ccc(Oc2ccccc2)cc1` showed a logP [12] of 3.87.

For `CC(=O)n1c(=O)[nH]cc(F)c1=O`, the logD [13] was -0.34.

Work on `NS(=O)(=O)c1ccc(Cl)c(Cl)c1` yielded a logD ([4]; pH 2.0) of 1.44.

Compound `Cc1ccc2[nH]nnc2c1` has a logP [14] of 1.89.

`CS(=O)CCn1ccnc1[N+](=O)[O-]` (centres undefined) gave a logP [15] of -1.22.

Work on `CCn1ccc(=O)c(O)c1` yielded a logP [16] of -0.4.

`CCCCOCC` gave a logP [17] of 2.03.

Compound `ClC1C(Cl)C(Cl)C(Cl)C(Cl)C1Cl` (centres undefined) has a logP [12] of 3.67.

`O=C1CCCCCCCN1` showed a logP [18] of 0.67.

In the case of `Sc1nc2ccccc2s1`, the logP [19] is reported as 2.41.

`CC1(C(N)=O)CCC=[N+]1[O-]` (centres undefined) showed a logD [20] of -1.8.

`O=Cc1ssc(=S)c1CCC(=O)O` showed a logP [21] of 2.73.

`COCC(=O)Cn1ccnc1[N+](=O)[O-]` showed a logP [22] of -0.26.

`S=C=Nc1ccc(N=C=S)cc1` showed a logP [23] of 2.8.

Compound `Oc1ccc(Cl)cc1` has a logP [24] of 2.43.

For `COc1ccc(O)cc1`, the logP [25] was 1.57.

Compound `COc1cc(Cl)c(Cl)c(Cl)c1O` has a logP [26] of 3.72.

Compound `Cc1ssc(=S)c1CCC(=O)O` has a logP [21] of 2.04.

Compound `Clc1ccc(Br)cc1` has a logP [27] of 3.83.

With `Cc1ccc([N+](=O)[O-])cc1` the logP [28] was 2.4.

In the case of `Oc1c(Cl)cc(Cl)c(Cl)c1Cl`, the logP [26] is reported as 4.3.

In the case of `O=[N+]([O-])c1nccn1CC(O)CCl` (centres undefined), the logP [29] is reported as 0.15.

Work on `Nc1cc(Cl)ccc1Cl` yielded a logP [30] of 2.62.

With `Oc1cc(Cl)ccc1Cl` the logP [31] was 3.06.

With `O=C(O)c1ccccc1[N+](=O)[O-]` the logP [32] was 1.46.

`Clc1ccc2[nH]nnc2c1` gave a logP [14] of 2.17.

`COc1ccccc1` gave a logP [24] of 2.15.

`Cn1cccc(O)c1=O` gave a logD [6] of -0.4.

For `COc1cc(Cl)c(Cl)cc1OC`, the logP [33] was 3.11.

Compound `O=[N+]([O-])c1c(Cl)cc(Cl)cc1Cl` has a logP [10] of 3.69.

Work on `Cl[C@@H]1CCCC[C@@H]1Cl` yielded a logP [34] of 3.18.

`Cc1ccc(C)o1` showed a logP [35] of 2.24.

Compound `CCC1(C(N)=O)CCC=[N+]1[O-]` (centres undefined) has a logD [20] of -1.25.

Compound `N#Cc1ccc([N+](=O)[O-])n1CCO` has a logP [29] of 0.6.

Work on `CCN1CCCC1=O` yielded a logP [3] of -0.04.

With `CCC(CC)(OC)C(=O)NC(N)=O` the logP [9] was 0.96.

For `Nc1cccc(Cl)c1Cl`, the logP [30] was 2.51.

For `COP(=O)(OC)C(C)(OC(C)=O)P(=O)(OC)OC`, the logD [36] was -1.05.

In the case of `C=CCCCCCC`, the logP [37] is reported as 4.72.

For `Cc1cccc(C)n1`, the logP [38] was 1.63.

`CCCC(CO)N1C=NC2C(N)=NC=NC21` (centres undefined) showed a logP [17] of 0.66.

Compound `COP(=O)(OC)C(C)(O)P(=O)(OC)OC` has a logD [36] of -1.39.

For `Brc1ccccc1Br`, the logP [27] was 4.07.

Compound `O=C1CCCCCCN1` has a logP [18] of 0.24.

Work on `Cc1ccccc1C(=O)O` yielded a logP [32] of 2.18.

`O=C(Cn1ccnc1[N+](=O)[O-])NCC(O)CO` (centres undefined) showed a logP [15] of -1.85.

With `Cc1ncc([N+](=O)[O-])n1CCS(C)(=O)=O` the logP [39] was -0.82.

`CCCC(=O)n1c(=O)[nH]cc(F)c1=O` gave a logD [13] of 0.67.

Work on `COc1c(Cl)cc(Cl)c(Cl)c1Cl` yielded a logP [40] of 4.75.

Compound `N#CSCSc1nc2ccccc2s1` has a logP [19] of 3.12.

`O=[N+]([O-])c1ccc(Oc2c(Cl)cc(Cl)cc2Cl)cc1` gave a logP [41] of 4.97.

In the case of `O=[N+]([O-])c1ccccc1`, the logP [28] is reported as 1.86.

Work on `Cc1ccc(C)c(C=O)c1` yielded a logP [5] of 1.91.

For `c1ccc(-c2nccnn2)cc1`, the logP [35] was 1.71.

For `COc1c(Cl)c(Cl)cc(Cl)c1Cl`, the logP [40] was 4.68.

For `COc1c(Cl)cc(Cl)cc1Cl`, the logP [33] was 4.02.

With `CCCCCBr` the logP [37] was 3.32.

`CCCCc1ccc(O)cc1` showed a logP [25] of 3.65.

`O=C(O)C1CC=CCC1` (centres undefined) gave a logD [2] of 1.69.

Compound `CCS(=O)(=O)CCn1ccnc1[N+](=O)[O-]` has a logP [22] of -0.58.

Work on `Oc1cccc(F)c1` yielded a logP [31] of 1.82.

For `ClC1=CC(Cl)C(Cl)C(Cl)C1` (centres undefined), the logP [34] was 3.52.

In the case of `C1CCCCCCC1`, the logP is reported as 3.28.

In the case of `CCCCC(C)=O`, the logP [38] is reported as 1.39.

In the case of `CN(C)c1nc(Cl)nc(N(C)C)n1`, the logD [1] is reported as 2.31.

`O=C1OC(=O)c2c(Cl)c(Cl)c(Cl)c(Cl)c21` showed a logP [41] of 3.09.

Compound `C#CCN(C)C(C)Cc1ccc(F)cc1` (centres undefined) has a logP [7] of 3.

In the case of `Cc1ncc([N+](=O)[O-])n1CCS(=O)(=O)C(C)C`, the logP [39] is reported as 0.13.

With `COCCCNc1nc(NC(C)C)nc(SC)n1` the logP [11] was 2.96.

For `S=C=Nc1cccc2c(N=C=S)cccc12`, the logP [23] was 4.43.

With `CCCCn1ccc(=O)c(O)c1` the logP [16] was 0.72.
